According to US20240158370A1, “CK1 alpha AND DUAL CK1 alpha / GSPT1 DEGRADING COMPOUNDS” (Innovo Therapeutics, Inc., priority 2022, published 2024):

Tests used:
CK1α = target: T1, CK1α (Homo sapiens, UniProt P48729+Q96SW2); test: HiBiT degradation assay, CK1α, Procedure A; assay type: cell-based; settings: six hours
T1 construct: CSNK1A1-HiBit KI HEK293(LgBit) Cells; host or cells: HEK293(LgBit) knock-in cells
Outline: (§1)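 Cells in DMEM+10% FBS at 1×10^6 cells/ml were added to pre-spotted compound (10-point dose response, 10 μM to 0.005 μM, 0.1% DMSO) and incubated 6 h at 37° C. Nano-Glo HiBiT lytic reagent was added and luminescence read. DC50 and Ymin came from 4-parameter curve fits.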

GSPT1 = GSPT1 (Homo sapiens, UniProt P15170+Q96SW2); test: HiBiT degradation assay, GSPT1, Procedure A; assay type: cell-based; design: HiBit-GSPT1 KI HEK293(LgBit) Cells; host or cells: HEK293(LgBit) knock-in cells; settings: six hours
GSPT1, sequence (P15170 whole entry): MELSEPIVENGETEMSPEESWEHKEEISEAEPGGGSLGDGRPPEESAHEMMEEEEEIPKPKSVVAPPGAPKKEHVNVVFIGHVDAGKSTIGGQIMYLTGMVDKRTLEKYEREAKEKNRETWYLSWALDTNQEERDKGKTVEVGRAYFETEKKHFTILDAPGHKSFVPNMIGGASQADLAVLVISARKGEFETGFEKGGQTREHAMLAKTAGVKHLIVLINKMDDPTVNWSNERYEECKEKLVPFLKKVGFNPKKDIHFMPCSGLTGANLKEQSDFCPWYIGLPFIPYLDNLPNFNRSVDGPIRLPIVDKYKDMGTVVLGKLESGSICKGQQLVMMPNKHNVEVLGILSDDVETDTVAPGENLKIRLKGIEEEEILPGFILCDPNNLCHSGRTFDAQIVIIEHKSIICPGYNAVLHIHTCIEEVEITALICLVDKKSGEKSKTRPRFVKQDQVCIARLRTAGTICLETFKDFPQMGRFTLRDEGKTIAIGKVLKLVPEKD
GSPT1, sequence (Q96SW2 whole entry): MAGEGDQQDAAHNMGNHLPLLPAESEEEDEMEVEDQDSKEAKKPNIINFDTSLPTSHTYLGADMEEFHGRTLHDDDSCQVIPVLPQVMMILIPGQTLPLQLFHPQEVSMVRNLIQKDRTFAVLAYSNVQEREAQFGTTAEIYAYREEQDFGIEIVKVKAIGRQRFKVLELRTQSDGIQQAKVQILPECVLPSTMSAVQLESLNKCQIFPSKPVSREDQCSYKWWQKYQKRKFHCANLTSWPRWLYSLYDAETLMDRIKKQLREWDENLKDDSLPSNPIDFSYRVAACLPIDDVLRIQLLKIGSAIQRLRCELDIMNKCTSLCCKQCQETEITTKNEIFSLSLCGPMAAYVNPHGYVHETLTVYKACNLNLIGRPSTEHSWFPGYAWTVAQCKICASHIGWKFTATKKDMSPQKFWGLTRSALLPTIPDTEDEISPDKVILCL
GSPT1, sequence (Q16531 whole entry partner): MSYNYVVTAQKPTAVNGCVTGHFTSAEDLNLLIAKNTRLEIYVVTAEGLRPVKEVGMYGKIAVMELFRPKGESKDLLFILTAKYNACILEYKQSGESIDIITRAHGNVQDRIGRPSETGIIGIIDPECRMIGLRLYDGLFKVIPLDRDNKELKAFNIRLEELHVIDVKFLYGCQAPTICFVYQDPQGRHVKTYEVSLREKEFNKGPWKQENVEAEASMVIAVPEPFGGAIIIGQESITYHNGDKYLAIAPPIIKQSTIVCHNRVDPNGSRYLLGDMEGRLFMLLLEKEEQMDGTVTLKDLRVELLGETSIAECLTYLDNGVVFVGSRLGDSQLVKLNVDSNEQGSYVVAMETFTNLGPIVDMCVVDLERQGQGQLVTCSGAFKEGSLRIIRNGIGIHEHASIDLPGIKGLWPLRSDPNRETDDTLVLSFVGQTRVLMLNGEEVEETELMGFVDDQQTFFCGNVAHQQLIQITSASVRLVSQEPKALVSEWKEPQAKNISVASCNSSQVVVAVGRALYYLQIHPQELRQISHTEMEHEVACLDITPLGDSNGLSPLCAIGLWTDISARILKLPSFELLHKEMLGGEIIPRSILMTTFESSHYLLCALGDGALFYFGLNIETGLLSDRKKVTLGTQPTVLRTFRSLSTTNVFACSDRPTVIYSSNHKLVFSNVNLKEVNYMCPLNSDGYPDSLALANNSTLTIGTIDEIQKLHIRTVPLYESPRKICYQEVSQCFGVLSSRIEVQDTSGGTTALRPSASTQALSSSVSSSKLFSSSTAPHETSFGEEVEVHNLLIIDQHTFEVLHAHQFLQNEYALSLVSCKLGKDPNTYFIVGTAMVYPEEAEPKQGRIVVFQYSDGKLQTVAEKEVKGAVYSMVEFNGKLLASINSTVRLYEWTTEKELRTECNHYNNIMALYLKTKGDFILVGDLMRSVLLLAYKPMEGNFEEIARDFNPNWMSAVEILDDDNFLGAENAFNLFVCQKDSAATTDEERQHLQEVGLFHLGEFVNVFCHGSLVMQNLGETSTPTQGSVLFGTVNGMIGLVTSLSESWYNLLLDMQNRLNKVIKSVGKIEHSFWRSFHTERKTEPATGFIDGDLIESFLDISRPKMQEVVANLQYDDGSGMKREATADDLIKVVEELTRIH
Outline: as §1

T1 sequence (P48729 whole entry): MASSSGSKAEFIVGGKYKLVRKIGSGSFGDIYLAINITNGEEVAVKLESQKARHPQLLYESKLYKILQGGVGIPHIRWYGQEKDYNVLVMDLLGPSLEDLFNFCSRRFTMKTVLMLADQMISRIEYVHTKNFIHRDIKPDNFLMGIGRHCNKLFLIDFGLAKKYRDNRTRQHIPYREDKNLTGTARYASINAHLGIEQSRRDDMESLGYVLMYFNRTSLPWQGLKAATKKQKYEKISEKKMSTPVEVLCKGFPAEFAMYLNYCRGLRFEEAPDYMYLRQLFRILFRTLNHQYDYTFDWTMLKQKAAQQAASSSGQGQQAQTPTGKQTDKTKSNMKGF
T1 sequence (Q96SW2 whole entry): as the sequence (Q96SW2 whole entry) above
T1 sequence (Q16531 whole entry partner): as the sequence (Q16531 whole entry partner) above

CK1α Ymin (CK1α) | DC50 (CK1α) | DC50 (GSPT1) | GSPT1 Ymin (GSPT1) | SMILES
D (D = >10- 25% remaining) | < 25 nM | ≥ 25 nM | F (F = >75-100% remaining) | Cn1cc(-c2ccc3c(c2)CN(C2CCC(=O)NC2=O)C3=O)nc1C1CCC(F)(F)CC1 (stereo not shown) [Example 545, 3-(5-(2-(4,4-difluorocyclohexyl)-1-methyl-1H-imidazol-4-yl)-1-oxoisoindolin-2-yl)piperidine-2,6-dione]
D (D = >10- 25% remaining) | < 25 nM | ≥ 25 nM | F (F = >75-100% remaining) | Cc1ncc(-c2c(-c3ccc4c(c3)CN(C3CCC(=O)NC3=O)C4=O)nc(C3CC3)n2C)cn1 (stereo not shown) [Example 547, 3-(5-(2-cyclopropyl-1-methyl-5-(2-methylpyrimidin-5-yl)-1H-imidazol-4-yl)-1-oxoisoindolin-2-yl)piperidine-2,6-dione]
D (D = >10- 25% remaining) | < 25 nM | ≥ 25 nM | F (F = >75-100% remaining) | Cn1c(C2CC2)nc(-c2ccc3c(c2)CN(C2CCC(=O)NC2=O)C3=O)c1-c1cnc(C2CC2)nc1 (stereo not shown) [Example 548, 3-(5-(2-cyclopropyl-5-(2-cyclopropylpyrimidin-5-yl)-1-methyl-1H-imidazol-4-yl)-1-oxoisoindolin-2-yl)piperidine-2,6-dione]
C (C = 0-10% remaining) | < 25 nM | ≥ 25 nM | F (F = >75-100% remaining) | CC(C)n1cc(-c2ccc3c(c2)CN(C2CCC(=O)NC2=O)C3=O)nc1-c1ccccc1 (stereo not shown) [Example 549, 3-(5-(1-isopropyl-2-phenyl-1H-imidazol-4-yl)-1-oxoisoindolin-2-yl)piperidine-2,6-dione]
E (E = >25-75% remaining) | < 25 nM | ≥ 25 nM | F (F = >75-100% remaining) | O=C1CCC(N2Cc3cc(-n4ccc(-c5ccccc5)n4)ccc3C2=O)C(=O)N1 (stereo not shown) [Example 551, 3-(1-oxo-5-(3-phenyl-1H-pyrazol-1-yl)isoindolin-2-yl)piperidine-2,6-dione]
E (E = >25-75% remaining) | ≥ 25 nM | ≥ 25 nM | F (F = >75-100% remaining) | O=C1CCC(N2Cc3cc(-n4cnc(-c5ccccc5)c4)ccc3C2=O)C(=O)N1 (stereo not shown) [Example 552, 3-(1-oxo-5-(4-phenyl-1H-imidazol-1-yl)isoindolin-2-yl)piperidine-2,6-dione]
D (D = >10- 25% remaining) | < 25 nM | ≥ 25 nM | F (F = >75-100% remaining) | Cn1nc(-c2ccc3c(c2)CN(C2CCC(=O)NC2=O)C3=O)nc1N1CCCCC1 (stereo not shown) [Example 554, 3-(5-(1-methyl-5-(piperidin-1-yl)-1H-1,2,4-triazol-3-yl)-1-oxoisoindolin-2-yl) piperidine-2,6-dione]
C (C = 0-10% remaining) | < 25 nM | ≥ 25 nM | F (F = >75-100% remaining) | Cn1cc(-c2ccc3c(c2)CN(C2CCC(=O)NC2=O)C3=O)nc1-c1cc(F)cc(F)c1 (stereo not shown) [Example 555]
C (C = 0-10% remaining) | < 25 nM | ≥ 25 nM | F (F = >75-100% remaining) | Cn1cc(-c2ccc3c(c2)CN(C2CCC(=O)NC2=O)C3=O)nc1-c1ccc(F)cc1 (stereo not shown) [Example 556]
C (C = 0-10% remaining) | < 25 nM | ≥ 25 nM | F (F = >75-100% remaining) | COc1ccc(-c2nc(-c3ccc4c(c3)CN(C3CCC(=O)NC3=O)C4=O)cn2C)cc1 (stereo not shown) [Example 557]
C (C = 0-10% remaining) | < 25 nM | ≥ 25 nM | F (F = >75-100% remaining) | Cc1cc(-c2nc(-c3ccc4c(c3)CN(C3CCC(=O)NC3=O)C4=O)cn2C)ccc1N (stereo not shown) [Example 558]
C (C = 0-10% remaining) | < 25 nM | < 25 nM | F (F = >75-100% remaining) | Cn1cc(-c2ccc3c(c2)CN(C2CCC(=O)NC2=O)C3=O)nc1-c1ccoc1 (stereo not shown) [Example 559]
C (C = 0-10% remaining) | < 25 nM | < 25 nM | F (F = >75-100% remaining) | Cc1cc(F)ccc1-c1nc(-c2ccc3c(c2)CN(C2CCC(=O)NC2=O)C3=O)cn1C (stereo not shown) [Example 560]
C (C = 0-10% remaining) | < 25 nM | < 25 nM | F (F = >75-100% remaining) | Cc1ccc(F)c(-c2nc(-c3ccc4c(c3)CN(C3CCC(=O)NC3=O)C4=O)cn2C)c1 (stereo not shown) [Example 561]
C (C = 0-10% remaining) | < 25 nM | < 25 nM | F (F = >75-100% remaining) | Cc1cc(Cl)ccc1-c1nc(-c2ccc3c(c2)CN(C2CCC(=O)NC2=O)C3=O)cn1C (stereo not shown) [Example 562]
C (C = 0-10% remaining) | < 25 nM | ≥ 25 nM | F (F = >75-100% remaining) | Cc1cc(-c2nc(-c3ccc4c(c3)CN(C3CCC(=O)NC3=O)C4=O)cn2C)ccc1F (stereo not shown) [Example 563]
C (C = 0-10% remaining) | < 25 nM | < 25 nM | F (F = >75-100% remaining) | Cc1ccc(-c2nc(-c3ccc4c(c3)CN(C3CCC(=O)NC3=O)C4=O)cn2C)cc1Cl (stereo not shown) [Example 564]

CK1α Ymin (CK1α) | DC50 (CK1α) | DC50 (GSPT1) | GSPT1 Ymin (GSPT1) | SMILES
C (C = 0-10% remaining) | < 25 nM | ≥ 25 nM | F (F = >75-100% remaining) | COc1ccc(-c2nc(-c3ccc4c(c3)CN(C3CCC(=O)NC3=O)C4=O)cn2C)cc1C (stereo not shown) [Example 565]
C (C = 0-10% remaining) | < 25 nM | ≥ 25 nM | E (E = >25-75% remaining) | Cc1ccc(-c2nc(-c3ccc4c(c3)CN(C3CCC(=O)NC3=O)C4=O)cn2C)cc1C (stereo not shown) [Example 566]
C (C = 0-10% remaining) | < 25 nM | < 25 nM | F (F = >75-100% remaining) | Cc1ccc(-c2nc(-c3ccc4c(c3)CN(C3CCC(=O)NC3=O)C4=O)cn2C)cc1 (stereo not shown) [Example 568]
C (C = 0-10% remaining) | < 25 nM | < 25 nM | F (F = >75-100% remaining) | Cn1cc(-c2ccc3c(c2)CN(C2CCC(=O)NC2=O)C3=O)nc1-c1ccc(OC(F)F)cc1 (stereo not shown) [Example 569]
C (C = 0-10% remaining) | < 25 nM | ≥ 25 nM | E (E = >25-75% remaining) | Cc1cccc(-c2nc(-c3ccc4c(c3)CN(C3CCC(=O)NC3=O)C4=O)cn2C)c1 (stereo not shown) [Example 570]
C (C = 0-10% remaining) | < 25 nM | < 25 nM | F (F = >75-100% remaining) | Cc1ccccc1-c1nc(-c2ccc3c(c2)CN(C2CCC(=O)NC2=O)C3=O)cn1C (stereo not shown) [Example 571]
D (D = >10- 25% remaining) | < 25 nM | < 25 nM | F (F = >75-100% remaining) | Cn1cc(-c2ccc3c(c2)CN(C2CCC(=O)NC2=O)C3=O)nc1-c1ccc(C#N)nc1 (stereo not shown) [Example 572]
C (C = 0-10% remaining) | < 25 nM | < 25 nM | E (E = >25-75% remaining) | Cc1c(N)cccc1-c1nc(-c2ccc3c(c2)CN(C2CCC(=O)NC2=O)C3=O)cn1C (stereo not shown) [Example 573]
C (C = 0-10% remaining) | < 25 nM | ≥ 25 nM | E (E = >25-75% remaining) | Cc1cc(-c2nc(-c3ccc4c(c3)CN(C3CCC(=O)NC3=O)C4=O)cn2C)ccc1Cl (stereo not shown) [Example 574]
D (D = >10- 25% remaining) | < 25 nM | ≥ 25 nM | F (F = >75-100% remaining) | CCCCCCc1ccc(-c2nc(-c3ccc4c(c3)CN(C3CCC(=O)NC3=O)C4=O)cn2C)cc1 (stereo not shown) [Example 575]
C (C = 0-10% remaining) | < 25 nM | < 25 nM | F (F = >75-100% remaining) | Cc1cc(C)cc(-c2nc(-c3ccc4c(c3)CN(C3CCC(=O)NC3=O)C4=O)cn2C)c1 (stereo not shown) [Example 576]
C (C = 0-10% remaining) | < 25 nM | < 25 nM | E (E = >25-75% remaining) | CCCCc1ccc(-c2nc(-c3ccc4c(c3)CN(C3CCC(=O)NC3=O)C4=O)cn2C)cc1 (stereo not shown) [Example 577]
C (C = 0-10% remaining) | < 25 nM | < 25 nM | E (E = >25-75% remaining) | COc1cccc(-c2nc(-c3ccc4c(c3)CN(C3CCC(=O)NC3=O)C4=O)cn2C)c1 (stereo not shown) [Example 578]
C (C = 0-10% remaining) | < 25 nM | < 25 nM | F (F = >75-100% remaining) | COc1cc(-c2nc(-c3ccc4c(c3)CN(C3CCC(=O)NC3=O)C4=O)cn2C)ccc1Cl (stereo not shown) [Example 579]
C (C = 0-10% remaining) | < 25 nM | ≥ 25 nM | F (F = >75-100% remaining) | Cn1cc(-c2ccc3c(c2)CN(C2CCC(=O)NC2=O)C3=O)nc1-c1cccc(OC2CC2)c1 (stereo not shown) [Example 580]
C (C = 0-10% remaining) | < 25 nM | < 25 nM | F (F = >75-100% remaining) | Cn1cc(-c2ccc3c(c2)CN(C2CCC(=O)NC2=O)C3=O)nc1-c1ccc(OC2CC2)cc1 (stereo not shown) [Example 581]
C (C = 0-10% remaining) | < 25 nM | < 25 nM | F (F = >75-100% remaining) | Cn1cc(-c2ccc3c(c2)CN(C2CCC(=O)NC2=O)C3=O)nc1-c1ccc(C2CCCCC2)cc1 (stereo not shown) [Example 582]
